Among the test systems are A498 renal; CAKI-1 renal; COLO 205 colon; MDA-MB-231 breast; RPMI-8226 leukemia; SK-MEL-28 melanoma; SK-OV-3 ovarian; UACC-62 melanoma; UO-31 renal; A549 NSCLC; PC-3 prostate.
Common to all, as to assay: DTP human tumour cell line panel, 48 h

The structures appear in SMILES notation.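 How tested: cells in 96-well plates exposed to compound for 48 hours at five concentrations. At the TGI there is no net growth.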

On to `CC(=O)NC1C(OCc2ccccc2)OC(CO)C(O)C1OCC(=O)N[C@@H](C)C(=O)N[C@H](CCC(=O)NCCNc1ccc([N+](=O)[O-])c2[nH]c3ccccc3c(=O)c12)C(N)=O` (stereo not given in full), for which the total growth inhibition concentration (TGI) in the experiment with A498 renal is 58 µM; with CAKI-1 renal, over 100 µM; in the experiment with COLO 205 colon it was over 100 µM; in the experiment on MDA-MB-231 breast it was 94.4 µM; in the experiment with RPMI-8226 leukemia, over 100 µM; in the experiment with SK-MEL-28 melanoma, over 100 µM. The TGI in the experiment with SK-OV-3 ovarian was over 100 µM; with UACC-62 melanoma it was 46.6 µM; with UO-31 renal, 37.4 µM.

For the compound `C/C(O)=C(\C=NC(=S)c1ccncc1)C(=O)Nc1ccccc1C`, the total growth inhibition concentration (TGI) with A498 renal, in the experiment on A549 NSCLC, in the experiment with CAKI-1 renal, with COLO 205 colon, in the experiment with MDA-MB-231 breast and with SK-MEL-28 melanoma was over 100 µM each time. The TGI in the experiment on SK-OV-3 ovarian, in the experiment on UACC-62 melanoma and with UO-31 renal was over 100 µM each time.

Consider `O=C1/C(=C/c2ccccc2)CCCc2ccccc21`, for which the concentration for total growth inhibition (TGI) with A549 NSCLC is 67.1 µM; with CAKI-1 renal, 76.2 µM; in the experiment with COLO 205 colon, 33.3 µM; with MDA-MB-231 breast it was 39.1 µM; with PC-3 prostate, 35.1 µM; with RPMI-8226 leukemia, over 100 µM. The TGI in the experiment on SK-MEL-28 melanoma is 32.6 µM; in the experiment with SK-OV-3 ovarian, over 100 µM; with UACC-62 melanoma it was 28.6 µM; in the experiment with UO-31 renal it was 31.9 µM.

As for `COc1ccc(/C(Cl)=C(\C=O)c2ccc(Cl)cc2)cc1OC`, the TGI was 54.3 µM in the experiment with A498 renal; over 100 µM in the experiment on A549 NSCLC; 49.2 µM in the experiment with CAKI-1 renal; 13.2 µM in the experiment on COLO 205 colon; 62.9 µM with RPMI-8226 leukemia; over 100 µM in the experiment on SK-OV-3 ovarian. Moreover, the TGI in the experiment with UACC-62 melanoma amounted to 39.9 µM; in the experiment with UO-31 renal it was 28 µM.

With `C/C(O[Si](C(C)C)(C(C)C)C(C)C)=C(\C)C(=O)N(C)c1ccccc1Cl`, the TGI in the experiment on A498 renal, in the experiment with A549 NSCLC, in the experiment on CAKI-1 renal, with COLO 205 colon, in the experiment with MDA-MB-231 breast and with RPMI-8226 leukemia was over 100 µM throughout. Also, the total growth inhibition concentration (TGI) with SK-MEL-28 melanoma and with UO-31 renal was over 100 µM in each case.

Regarding `O=C1NC(=Nc2ccccc2Cl)N/C1=C\c1ccc(Cl)cc1Cl`, the TGI in the experiment with A498 renal, in the experiment on A549 NSCLC, in the experiment on CAKI-1 renal, in the experiment with COLO 205 colon, with PC-3 prostate and in the experiment on RPMI-8226 leukemia was over 100 µM in each case. Moreover, the concentration for total growth inhibition (TGI) with SK-MEL-28 melanoma, in the experiment with SK-OV-3 ovarian, with UACC-62 melanoma and in the experiment with UO-31 renal was over 100 µM throughout.

For `COCOc1cc(OC)ccc1C/C(=N/O)C(=O)OC`, the total growth inhibition concentration (TGI) in the experiment with A549 NSCLC, in the experiment on CAKI-1 renal, in the experiment on COLO 205 colon, in the experiment on MDA-MB-231 breast, in the experiment on PC-3 prostate and in the experiment on SK-MEL-28 melanoma was over 100 µM each time. The TGI in the experiment on SK-OV-3 ovarian, in the experiment with UACC-62 melanoma and in the experiment on UO-31 renal was over 100 µM each time.

Take `O=c1[nH]c(=O)n([C@@H]2O[C@H](CO)[C@@H](O)[C@@H]2F)cc1I`: the TGI in the experiment on A498 renal, with A549 NSCLC, in the experiment on CAKI-1 renal, in the experiment with COLO 205 colon, in the experiment on MDA-MB-231 breast and with SK-MEL-28 melanoma was over 100 µM each time. For the same compound, the TGI with SK-OV-3 ovarian, in the experiment with UACC-62 melanoma and in the experiment on UO-31 renal was over 100 µM in each case.

Turning to `CCOC(=O)/C=C(/C(=O)OCC)n1ccc(=O)n(Cc2cnnn2CCCCOC(C)=O)c1=O`, the TGI is over 100 µM in the experiment on A549 NSCLC; 76.3 µM with CAKI-1 renal; 46 µM in the experiment with COLO 205 colon; over 100 µM with MDA-MB-231 breast; over 100 µM in the experiment on PC-3 prostate; over 100 µM with RPMI-8226 leukemia. Further, the TGI with SK-MEL-28 melanoma, in the experiment with SK-OV-3 ovarian, in the experiment on UACC-62 melanoma and in the experiment with UO-31 renal was over 100 µM throughout.

Regarding `CCOC1CCN(C(=O)c2ccccc2)O1` (stereo not given), the TGI with A549 NSCLC, in the experiment with CAKI-1 renal, in the experiment with COLO 205 colon, in the experiment with MDA-MB-231 breast, with PC-3 prostate and in the experiment with RPMI-8226 leukemia was over 10 µM throughout. In addition, the total growth inhibition concentration (TGI) in the experiment with SK-MEL-28 melanoma, with SK-OV-3 ovarian and in the experiment with UO-31 renal was over 10 µM throughout.

Turning to `C[C@H]1O[C@@H](C(C)(C)C)OC(=O)[C@@H]1C(OC(=O)c1ccccc1)c1cccc2ccccc12` (stereo not given in full), the TGI with A549 NSCLC, with CAKI-1 renal, with COLO 205 colon, in the experiment on MDA-MB-231 breast, in the experiment on PC-3 prostate and in the experiment with RPMI-8226 leukemia was over 100 µM in each case. Further, the total growth inhibition concentration (TGI) in the experiment with SK-MEL-28 melanoma, in the experiment on SK-OV-3 ovarian, with UACC-62 melanoma and with UO-31 renal was over 100 µM throughout.

In the case of `C[n+]1ccccc1/C1=c2\cc/c([nH]2)=C(\c2cccc[n+]2C)C2=N/C(=C(/c3cccc[n+]3C)C3C=CC(N3)/C(c3cccc[n+]3C)=C3/C=CC1=N3)C=C2`, the TGI in the experiment on A498 renal, in the experiment on A549 NSCLC, with CAKI-1 renal, with COLO 205 colon, with PC-3 prostate and in the experiment on RPMI-8226 leukemia was over 100 µM in each case. The TGI with SK-MEL-28 melanoma, in the experiment with SK-OV-3 ovarian, in the experiment on UACC-62 melanoma and in the experiment with UO-31 renal was over 100 µM in each case.

`COc1cc(OC)c(OC)cc1/C=C/c1cc[n+](C)c2ccccc12`: the total growth inhibition concentration (TGI) in the experiment with A498 renal was over 100 µM; with A549 NSCLC, over 100 µM; in the experiment on CAKI-1 renal, over 100 µM; in the experiment on COLO 205 colon it was 19 µM; in the experiment with PC-3 prostate, 75.1 µM; in the experiment on RPMI-8226 leukemia, over 100 µM. The TGI with SK-MEL-28 melanoma, in the experiment on SK-OV-3 ovarian and in the experiment on UO-31 renal was over 100 µM in each case.

With `CCOC(=O)C1(C(=O)OCC)C=C(c2ccccc2)N(C2OC(COC(C)=O)C(OC(C)=O)C(OC(C)=O)C2OC(C)=O)C1=S` (stereo not given), the concentration for total growth inhibition (TGI) in the experiment on A498 renal is over 100 µM; in the experiment on A549 NSCLC, over 100 µM; in the experiment on CAKI-1 renal, over 100 µM; in the experiment with COLO 205 colon, over 100 µM; in the experiment with MDA-MB-231 breast, over 100 µM; in the experiment with RPMI-8226 leukemia, 44.3 µM. Also, the TGI with SK-MEL-28 melanoma, in the experiment on SK-OV-3 ovarian, in the experiment on UACC-62 melanoma and in the experiment with UO-31 renal was over 100 µM in each case.

(Values after PubChem BioAssay (NCI).)
